Structures can show the parent of a compound that is named as a salt.
Tests used:
human PLK4 = human PLK4 (Homo sapiens (Human), UniProt O00444); test: PLK4 inhibition assay (indirect ELISA); type: biochemical; settings: read-out: PLK4 IC50 Ranges
Aurora B = Aurora B (Homo sapiens (Human), UniProt Q96GD4); test: Aurora B inhibition assay (Z-Lyte); type: biochemical; settings: read-out: Aurora B IC50 Ranges
Chain of Aurora B (Q96GD4 whole entry): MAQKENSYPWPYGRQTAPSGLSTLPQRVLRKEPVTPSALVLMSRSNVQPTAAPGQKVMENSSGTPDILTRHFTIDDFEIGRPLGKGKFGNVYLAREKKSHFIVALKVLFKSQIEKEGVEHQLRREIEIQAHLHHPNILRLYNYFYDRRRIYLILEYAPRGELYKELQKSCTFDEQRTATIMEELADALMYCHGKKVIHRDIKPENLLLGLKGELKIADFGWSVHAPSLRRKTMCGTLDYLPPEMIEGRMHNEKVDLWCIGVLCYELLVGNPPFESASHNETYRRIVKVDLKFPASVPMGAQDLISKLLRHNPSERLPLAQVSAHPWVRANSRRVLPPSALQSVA
Experimental: Aurora B inhibition was determined using the Z-Lyte assay kit from Invitrogen. […] The % inhibition values were determined according to the manufacturer's directions and IC50 values were obtained using a non-linear 4 point logistic curve fit (XLfit4, IDBS)

Chain of human PLK4 (O00444 1-391): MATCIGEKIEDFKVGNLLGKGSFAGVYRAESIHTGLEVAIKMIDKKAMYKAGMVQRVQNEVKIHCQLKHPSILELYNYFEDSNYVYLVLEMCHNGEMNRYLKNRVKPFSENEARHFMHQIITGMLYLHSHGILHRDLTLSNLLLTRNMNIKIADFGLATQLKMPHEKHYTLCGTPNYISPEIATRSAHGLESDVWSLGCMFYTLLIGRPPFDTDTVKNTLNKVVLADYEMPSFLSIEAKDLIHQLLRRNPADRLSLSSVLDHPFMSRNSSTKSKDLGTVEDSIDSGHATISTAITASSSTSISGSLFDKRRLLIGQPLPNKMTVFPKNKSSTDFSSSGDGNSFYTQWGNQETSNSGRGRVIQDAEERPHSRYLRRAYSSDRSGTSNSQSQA

SMILES | IC50 (human PLK4) | IC50 (Aurora B)
O=C1Nc2ccccc2[C@]12C[C@H]2c1ccc2c(/C=C/c3ccccn3)n[nH]c2c1 (relative stereo) [Example A53, (1R*,2S*)-2-(3-((E)-2-(pyridin-2-yl)vinyl)-1H-indazol-6-yl)spiro[cyclopropane-1,3′-indolin]-2′-one] | < 100 nM | < 100 nM
N#Cc1ccc(/C=C/c2n[nH]c3cc([C@@H]4C[C@@]45C(=O)Nc4ccccc45)ccc23)cc1 (relative stereo) [Example A54, 4-((E)-2-(6-((1R*,2S*)-2′-oxospiro[cyclopropane-1,3′-indoline]-2-yl)-1H-indazol-3-yl)vinyl)benzonitrile] | < 100 nM | 100 to 1000 nM
CN1CCN(c2ccc(-c3n[nH]c4cc([C@@H]5C[C@@]56C(=O)Nc5ccc(N)cc56)ccc34)cc2)CC1 (relative stereo) [Example A86, (1R*,2S*)-5′-amino-2-(3-(4-(4-methylpiperazin-1-yl)phenyl)-1H-indazol-6-yl)spiro[cyclopropane-1,3′-indolin]-2′-one] | < 100 nM | 100 to 1000 nM
CN1C(=O)[C@@]2(C[C@H]2c2ccc3c(/C=C/c4ccc(CN5CCOCC5)cc4)n[nH]c3c2)c2ccccc21 (relative stereo) [Example A87, (1R*,2S*)-(E)-1′-methyl-2-(3-(4-(morpholinomethyl)styryl)-1H-indazol-6-yl)spiro[cyclopropane-1,3′-indolin]-2′-one 2,2,2-trifluoroacetate] | < 100 nM | < 100 nM
CN1CCN(c2ccc(-c3n[nH]c4cc([C@@H]5C[C@@]56C(=O)N(C)c5ccccc56)ccc34)cn2)CC1 (relative stereo) [Example A93, (1R*,2S*)-1′-methyl-2-(3-(6-(4-methylpiperazin-1-yl)pyridin-3-yl)-1H-indazol-6-yl)spiro[cyclopropane-1,3′-indolin]-2′-one bis(2,2,2-trifluoroacetate)] | < 100 nM | < 100 nM
CN1C(=O)[C@@]2(C[C@H]2c2ccc3c(/C=C/c4ccc(CN5CCCCC5)cc4)n[nH]c3c2)c2ccccc21 (relative stereo) [Example A95, (1R*,2S*)-(E)-1′-methyl-2-(3-(4-(piperidin-1-ylmethyl)styryl)-1H-indazol-6-yl)spiro[cyclopropane-1,3′-indolin]-2′-one 2,2,2-trifluoroacetate] | < 100 nM | < 100 nM
CCN1CCN(c2ccc(-c3n[nH]c4cc([C@@H]5C[C@@]56C(=O)Nc5ccc(OC)cc56)ccc34)cc2)CC1 (relative stereo) [Example A98, (1R*,2S*)-2-(3-(4-(4-ethylpiperazin-1-yl)phenyl)-1H-indazol-6-yl)-5′-methoxyspiro[cyclopropane-1,3′-indolin]-2′-one 2,2,2-trifluoroacetate] | < 100 nM | < 100 nM
COc1ccc2c(c1)[C@]1(C[C@H]1c1ccc3c(-c4ccc(N5CCN(C)CC5)nc4)n[nH]c3c1)C(=O)N2C (relative stereo) [Example A104, (1R*,2S*)-5′-methoxy-1′-methyl-2-(3-(6-(4-methylpiperazin-1-yl)pyridin-3-yl)-1H-indazol-6-yl)spiro[cyclopropane-1,3′-indolin]-2′-one bis(2,2,2-trifluoroacetate)] | < 100 nM | < 100 nM
NS(=O)(=O)c1cccc(-c2n[nH]c3cc([C@@H]4C[C@@]45C(=O)Nc4ccccc45)ccc23)c1 (relative stereo) [Example A130, 3-(6-((1R*,2S*)-2′-oxospiro[cyclopropane-1,3′-indoline]-2-yl)-1H-indazol-3-yl)benzenesulfonamide] | < 100 nM | 100 to 1000 nM
COc1ccc2c(c1)[C@]1(C[C@H]1c1ccc3c(/C=C/c4cccc(CN5CCOCC5)c4)n[nH]c3c1)C(=O)N2 (relative stereo) [Example A133, (1R*,2S*)-5′-methoxy-2-(3-(3-(morpholinomethyl)styryl)-1H-indazol-6-yl)spiro[cyclopropane-1,3′-indolin]-2′-one 2,2,2-trifluoroacetate] | < 100 nM | < 100 nM
COc1ccc2c(c1)[C@]1(C[C@H]1c1ccc3c(/C=C/c4cccc(CN(C)C)c4)n[nH]c3c1)C(=O)N2 (relative stereo) [Example A135, (1R*,2S*)-2-(3-(3-((dimethylamino)methyl)styryl-1H-indazol-6-yl)-5′-methoxyspiro[cyclopropane-1,3′-indolin]-2′-one 2,2,2-trifluoroacetate] | < 100 nM | < 100 nM
CCc1ccc2c(c1)[C@]1(C[C@H]1c1ccc3c(-c4ccc(N5CCN(C)CC5)cc4)n[nH]c3c1)C(=O)N2 (relative stereo) [Example A142, (1R*,2S*)-5′-ethyl-2-(3-(4-(4-methylpiperazin-1-yl)phenyl)-1H-indazol-6-yl)spiro[cyclopropane-1,3′-indolin]-2′-one 2,2,2-trifluoroacetate] | < 100 nM | < 100 nM
COc1ccc2c(c1)[C@]1(C[C@H]1c1ccc3c(-c4ccc(CCN5CCOCC5)cc4)n[nH]c3c1)C(=O)N2 (relative stereo) [Example A159, (1R*,2S*)-5′-methoxy-2-(3-(4-(2-morpholinoethyl)phenyl)-1H-indazol-6-yl)spiro[cyclopropane-1,3′-indolin]-2′-one 2,2,2-trifluoroacetate] | < 100 nM | < 100 nM
CN(C)Cc1ccc(/C=C/c2n[nH]c3cc([C@@H]4C[C@@]45C(=O)N(CC(N)=O)c4ccccc45)ccc23)cc1 (relative stereo) [Example A160, 2-((1R*,2S*)-(E)-2-(3-(4-((dimethylamino)methyl)styryl)-1H-indazol-6-yl)-2′-oxospiro[cyclopropane-1,3′-indoline]-1′-yl)acetamide 2,2,2-trifluoroacetate] | < 100 nM | < 100 nM
Cc1ccc2c(c1)[C@]1(C[C@H]1c1ccc3c(-c4ccc(N5CCN(C)CC5)cc4)n[nH]c3c1)C(=O)N2 (relative stereo) [Example A173, (1R*,2S)-5′-methyl-2-(3-(4-(4-methylpiperazin-1-yl)phenyl)-1H-indazol-6-yl)spiro[cyclopropane-1,3′-indolin]-2′-one 2,2,2-trifluoroacetate] | < 100 nM | < 100 nM
COc1ccc2c(c1)[C@]1(C[C@H]1c1ccc3c(/C=C/c4ccc(N5CCN(C)CC5)cc4)n[nH]c3c1)C(=O)N2 (relative stereo) [Example A174, (1R*,2S*)-(E)-5′-methoxy-2-(3-(4-(4-methylpiperazin-1-yl)styryl)-1H-indazol-6-yl)spiro[cyclopropane-1,3′-indolin]-2′-one 2,2,2-trifluoroacetate] | < 100 nM | < 100 nM
COCCN1C(=O)[C@@]2(C[C@H]2c2ccc3c(/C=C/c4ccc(CN(C)C)cc4)n[nH]c3c2)c2ccccc21 (relative stereo) [Example A180, (1R*,2S*)-(E)-2-(3-(4-((dimethylamino)methyl)styryl)-1H-indazol-6-yl)-1′-(2-methoxyethyl)spiro[cyclopropane-1,3′-indolin]-2′-one 2,2,2-trifluoroacetate] | < 100 nM | < 100 nM
COc1ccc2c(c1)[C@]1(C[C@H]1c1ccc3c(/C=C/c4csc(CN(C)C)c4)n[nH]c3c1)C(=O)N2 (relative stereo) [Example A181, (1R,2S)-2-(3-((E)-2-(5-((dimethylamino)methyl)thiophen-3-yl)vinyl-1H-indazol-6-yl)-5′-methoxyspiro[cyclopropane-1,3′-indolin]-2′-one 2,2,2-trifluoro acetate] | < 100 nM | < 100 nM
COc1ccc2c(c1)[C@]1(C[C@H]1c1ccc3c(I)n[nH]c3c1)C(=O)N2 [Example A7, (1R,2S)-2-(3-iodo-1H-indazol-6-yl)-5′-methoxyspiro[cyclopropane-1,3′-indolin]-2′-one] | < 100 nM | 100 to 1000 nM
COc1ccc2c(c1)[C@@]1(C[C@@H]1c1ccc3c(-c4ccc(N5CCN(C)CC5)nc4)n[nH]c3c1)C(=O)N2 [Example A15, (1S,2R)-5′-methoxy-2-(3-(6-(4-methylpiperazin-1-yl)pyridin-3-yl)-1H-indazol-6-yl)spiro[cyclopropane-1,3′-indolin]-2′-one] | < 100 nM | > 1000 nM
COc1ccc2c(c1)[C@@]1(C[C@@H]1c1ccc3c(-c4ccc(N5CCNCC5)cc4)n[nH]c3c1)C(=O)N2 [Example A50, (1S,2R)-5′-methoxy-2-(3-(4-(piperazin-1-yl)phenyl)-1H-indazol-6-yl)spiro[cyclopropane-1,3′-indolin]-2′-one 2,2,2-trifluoroacetate] | < 100 nM | < 100 nM
COc1ccc2c(c1)[C@]1(C[C@H]1c1ccc3c(/C=C/c4ccc5c(c4)CN(C)CC5)n[nH]c3c1)C(=O)N2 [Example A64, (1R,2S)-5′-methoxy-2-(3-((E)-2-(2-methyl-1,2,3,4-tetrahydroisoquinolin-7-yl)vinyl)-1H-indazol-6-yl)spiro[cyclopropane-1,3′-indolin]-2′-one 2,2,2-trifluoroacetate salt] | < 100 nM | < 100 nM
CN1CCc2ccc(/C=C/c3n[nH]c4cc([C@@H]5C[C@@]56C(=O)Nc5ccccc56)ccc34)cc2C1 [Example A65, (1R,2S)-2-(3-((E)-2-(2-methyl-1,2,3,4-tetrahydroisoquinolin-7-yl)vinyl)-1H-indazol-6-yl)spiro[cyclopropane-1,3′-indolin]-2′-one 2,2,2-trifluoroacetate salt] | < 100 nM | < 100 nM
COc1ccc2c(c1)[C@]1(C[C@H]1c1ccc3c(/C=C/c4ccc5c(c4)CNCC5)n[nH]c3c1)C(=O)N2 [Example A66, (1R,2S)-5′-methoxy-2-(3-((E)-2-(1,2,3,4-tetrahydroisoquinolin-7-yl)vinyl)-1H-indazol-6-yl)spiro[cyclopropane-1,3′-indolin]-2′-one 2,2,2-trifluoroacetate salt] | < 100 nM | < 100 nM
COc1ccc2c(c1)[C@]1(C[C@H]1c1ccc3c(-c4ccc(OCCN5CCCCC5)cc4)n[nH]c3c1)C(=O)N2 [Example A67, (1R,2S)-5′-methoxy-2-(3-(4-(2-(piperidin-1-yl)ethoxy)phenyl)-1H-indazol-6-yl)spiro[cyclopropane-1,3′-indolin]-2′-one 2,2,2-trifluoroacetate salt] | < 100 nM | < 100 nM

Source: patent publication US9907800B2, “Kinase inhibitors and method of treating cancer” (University Health Network, priority 2010, dated 2018)
